Laboratory results from publication PMC8143456 (Microorganisms, 2021).
Read-outs that look alike come from different tables or passages of the source.

Tests used:
SARS-CoV-2 [1] = conditions: Vero E6 cells ref 31; cited from earlier work
SARS-CoV-2 [2] = assay: Time-of-drug-addition assay in Vero cells; assay type: cell-based; conditions: compound at EC90, Vero cells, MOI 0.1
[3] = biological target: SARS-CoV-2 RNA polymerase complex (nsp12/nsp7/nsp8) (Severe acute respiratory syndrome coronavirus 2, UniProt P0DTD1); assay: SARS-CoV-2 RdRp primer extension assay; assay type: biochemical; conditions: 14-nucleotide RNA product on gel
[4] = biological target: SARS-CoV-2 nsp5 (3CL protease) (Severe acute respiratory syndrome coronavirus 2, UniProt P0DTD1); conditions: nsp5, 50 µM compound vs DMSO
SARS-CoV-2 3CL = conditions: enzyme-inhibition experiments ref 31; read-out: IC50, antiprotease activity against SARS-CoV-2 3CL; cited from earlier work
SARS-CoV-2 [5] = assay: SARS-CoV-2 antiviral activity assay in Calu-3 cells; assay type: cell-based
SARS-CoV-2 nsp14 = SARS-CoV-2 nsp14 (Severe acute respiratory syndrome coronavirus 2, UniProt P0DTD1); conditions: nsp14, 50 µM compound vs DMSO
SARS-CoV-2 pseudovirus = assay: microbe, parasite or virus in culture; assay type: cell-based; conditions: for inhibition at 1.1 µM / inhibition at 3.3 µM / inhibition at 10 µM / inhibition at 30 µM: Severe acute respiratory syndrome-related coronavirus, Huh7.5 cells, vs untreated sample, read-out: SARS-CoV-2 Pseudovirus Entry Inhibition (%)
SARS-CoV-2 nsp12 (RdRp) = SARS-CoV-2 nsp12 (RdRp) (Severe acute respiratory syndrome coronavirus 2, UniProt P0DTD1); conditions: nsp12, 50 µM compound vs DMSO
SARS-CoV-2 [6] = assay: microbe, parasite or virus in culture; assay type: cell-based; conditions: for EC50: read-out: Antiviral Activity against SARS-CoV-2 Vero EC50; for EC90: read-out: Antiviral Activity against SARS-CoV-2 Vero EC90; for inhibition at 20 µM: read-out: inhibition of SARS-CoV-2 in the initial antiviral evaluation assay
[7] = Cytotoxicity in Calu3 cells; conditions: human
[8] = test system: SARS-CoV-2 3CL protease (nsp5); design: method as in PMID 32746637; conditions: previous report ref 29; read-out: IC50, enzymatic activity of SARS-CoV-2 3CL protease (nsp5); cited from earlier work
[9] = MTS cytotoxicity assay in Vero cells; conditions: African green monkey
[10] = Severe acute respiratory syndrome coronavirus 2, human Calu-3 cells, read-out: Antiviral Activity against SARS-CoV-2 Calu-3 EC50
[11] = Severe acute respiratory syndrome coronavirus 2, human Calu-3 cells, read-out: Antiviral Activity against SARS-CoV-2 Calu-3 EC90
[12] = Severe acute respiratory syndrome coronavirus 2, 48 h, Vero cells, MOI 0.1, virus yield 2 days post-treatment
[13] = Severe acute respiratory syndrome coronavirus 2, Vero
[14] = Severe acute respiratory syndrome coronavirus 2, Vero, 48 h

Compound	EC50 (SARS-CoV-2 [1]) [µM]	time of addition post-infection up to which replication is significantly inhibited (SARS-CoV-2 [2])	inhibition of SARS-CoV-2 RdRp activity (in words) [3]	IC50 (SARS-CoV-2 3CL) [µM]	EC50 (SARS-CoV-2 [5]; [10]) [µM]	EC90 (SARS-CoV-2 [5]; [11]) [µM]	inhibitory activity on SARS-CoV-2 cell entry (in words) (SARS-CoV-2 pseudovirus)	inhibition at 1.1 µM (SARS-CoV-2 pseudovirus) [%]	inhibition at 3.3 µM (SARS-CoV-2 pseudovirus) [%]	inhibition at 10 µM (SARS-CoV-2 pseudovirus) [%]	inhibition at 30 µM (SARS-CoV-2 pseudovirus) [%]	EC50 (SARS-CoV-2 [6]; [12]) [µM]	EC90 (SARS-CoV-2 [6]; [12]) [µM]	inhibition at 20 µM (SARS-CoV-2 [6]; [13]) [%]	CC50 [7] [µM]	also measured
O=c1cc(-c2ccccc2)oc2cc(O)c(O)c(O)c12 [Baicalein, baicalein]	2.94	up to 8 h	more potent inhibition of SARS-CoV-2 RdRp activity compared to baicalin	0.94	1.2 ± 0.03	6.2 ± 0.04	no inhibitory activity	-2	-1.9	3.9	14.6	4.5 ± 0.2	7.6 ± 0.3	99.8		ΔTm [4]: 0.9 °C; ΔTm (SARS-CoV-2 nsp14): 1.5 °C; ΔTm (SARS-CoV-2 nsp12 (RdRp)): 3.9 °C; CC50 ([7]; Calu3 cells): 91 ± 0.05 µM
O=C(O)[C@H]1O[C@@H](Oc2cc3oc(-c4ccccc4)cc(=O)c3c(O)c2O)[C@H](O)[C@@H](O)[C@@H]1O [Baicalin, baicalin]	27.9	up to 6 h	inhibit the activity of the SARS-CoV-2 RdRp	6.41	8 ± 0.11	15.1 ± 0.2	no inhibitory activity	-12.1	-11.9	-6.6	-3.3	9 ± 0.08	15.8 ± 0.2	98	> 100	IC50 [8]: 34.7 µM; CC50 at 4 days [9]: > 100 µM
CCC(CC)COC(=O)[C@H](C)N[P@](=O)(OC[C@H]1O[C@@](C#N)(c2ccc3c(N)ncnn23)[C@H](O)[C@@H]1O)Oc1ccccc1 [Remdesivir, reference compound]															> 100	EC50 (SARS-CoV-2 [5]; Severe acute respiratory syndrome coronavirus 2, Calu-3, read-out: Antiviral Activity against SARS-CoV-2 Calu-3 EC50): 0.14 ± 0.02 µM; EC90 (SARS-CoV-2 [5]; Severe acute respiratory syndrome coronavirus 2, Calu-3, read-out: Antiviral Activity against SARS-CoV-2 Calu-3 EC90): 0.5 ± 0.03 µM; EC50 (SARS-CoV-2 [6]; [14]): 1 ± 0.1 µM; EC90 (SARS-CoV-2 [6]; [14]): 3.3 ± 0.3 µM
